Data taken from the supplement of paper PMC10307832.

Columns and labels:
Assay in all cases: relative viability (nuclei count vs DMSO), 5 days (fraction); higher = more cells survive
Dovitinib + Pictilisib = compound: CN1CCN(c2ccc3nc(-c4c(N)c5c(F)cccc5[nH]c4=O)[nH]c3c2)CC1 [Dovitinib] + CS(=O)(=O)N1CCN(Cc2cc3nc(-c4cccc5[nH]ncc45)nc(N4CCOCC4)c3s2)CC1 [Pictilisib] (partner 1 µM)
Procedure, shortened: (§1)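 For relative viability, nuclei counts in treated wells were divided by those in vehicle wells. Lung cancer cell lines had been pin-tool dosed in 1536-well plates the day after seeding and cultured for 5 days, then fixed and stained in one step (final 0.05% Triton X-100, 1% formaldehyde, 1 ug/ml Hoechst) and imaged at 4×. Doses were one drug alone or a fixed anchor-drug dose plus five library-drug doses (not always all listed) in √10 steps, and values are duplicate-plate medians.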

Dovitinib + Phenformin = compound: CN1CCN(c2ccc3nc(-c4c(N)c5c(F)cccc5[nH]c4=O)[nH]c3c2)CC1 [Dovitinib] + N=C(N)NC(=N)NCCc1ccccc1 [Phenformin] (partner 250 µM)
Procedure, shortened: as §1

Dovitinib + Palbociclib = compound: CN1CCN(c2ccc3nc(-c4c(N)c5c(F)cccc5[nH]c4=O)[nH]c3c2)CC1 [Dovitinib] + CC(=O)c1c(C)c2cnc(Nc3ccc(N4CCNCC4)cn3)nc2n(C2CCCC2)c1=O [Palbociclib] (partner 0.5 µM)
Procedure, shortened: as §1

Dovitinib + Decitabine = compound: CN1CCN(c2ccc3nc(-c4c(N)c5c(F)cccc5[nH]c4=O)[nH]c3c2)CC1 [Dovitinib] + Nc1ncn([C@H]2C[C@H](O)[C@@H](CO)O2)c(=O)n1 [Decitabine] (partner 2 µM)
Procedure, shortened: as §1

Row | Cell Line | relative viability (Dovitinib + Pictilisib; first compound 0.02 µM) | relative viability (Dovitinib + Pictilisib; first compound 0.06325 µM) | relative viability (Dovitinib + Pictilisib; first compound 0.2 µM) | relative viability (Dovitinib + Pictilisib; first compound 0.6325 µM) | relative viability (Dovitinib + Pictilisib; first compound 2 µM) | relative viability (Dovitinib + Phenformin; first compound 0.02 µM) | relative viability (Dovitinib + Phenformin; first compound 0.06325 µM) | relative viability (Dovitinib + Phenformin; first compound 0.2 µM) | relative viability (Dovitinib + Phenformin; first compound 0.6325 µM) | relative viability (Dovitinib + Phenformin; first compound 2 µM) | relative viability (Dovitinib + Palbociclib; first compound 0.02 µM) | relative viability (Dovitinib + Palbociclib; first compound 0.06325 µM) | relative viability (Dovitinib + Palbociclib; first compound 0.2 µM) | relative viability (Dovitinib + Palbociclib; first compound 0.6325 µM) | relative viability (Dovitinib + Palbociclib; first compound 2 µM) | relative viability (Dovitinib + Decitabine; first compound 0.02 µM) | relative viability (Dovitinib + Decitabine; first compound 0.06325 µM) | relative viability (Dovitinib + Decitabine; first compound 0.2 µM) | relative viability (Dovitinib + Decitabine; first compound 0.6325 µM) | relative viability (Dovitinib + Decitabine; first compound 2 µM)
1 | H3255 | 0.539 | 0.514 | 0.498 | 0.516 | 0.514 | 0.378 | 0.347 | 0.381 | 0.372 | 0.441 | 0.301 | 0.291 | 0.298 | 0.325 | 0.281 | 0.609 | 0.642 | 0.603 | 0.636 | 0.614
2 | EPLC-272H | 0.35 | 0.277 | 0.311 | 0.383 | 0.353 | 0.323 | 0.309 | 0.274 | 0.384 | 0.317 | 0.314 | 0.331 | 0.314 | 0.336 | 0.328 | 0.403 | 0.333 | 0.336 | 0.372 | 0.374
3 | PC-3 [JPC-3] | 0.742 | 0.75 | 0.818 | 0.897 | 0.877 | 0.486 | 0.494 | 0.467 | 0.474 | 0.474 | 0.518 | 0.58 | 0.55 | 0.555 | 0.517 | 0.949 | 0.882 | 0.859 | 0.804 | 0.898
4 | NCI-H1793 | 0.395 | 0.282 | 0.419 | 0.375 | 0.31 | 0.41 | 0.326 | 0.368 | 0.283 | 0.515 | 0.365 | 0.297 | 0.311 | 0.299 | 0.311 | 0.548 | 0.602 | 0.567 | 0.446 | 0.498
5 | EKVX | 0.451 | 0.366 | 0.462 | 0.506 | 0.463 | 0.217 | 0.225 | 0.232 | 0.253 | 0.236 | 0.394 | 0.378 | 0.511 | 0.412 | 0.364 | 0.388 | 0.399 | 0.348 | 0.339 | 0.286
6 | ChaGo-K-1 | 0.653 | 0.654 | 0.829 | 0.883 | 0.972 | 0.469 | 0.534 | 0.499 | 0.476 | 0.51 | 0.927 | 0.936 | 0.866 | 0.912 | 0.881 | 0.528 | 0.517 | 0.498 | 0.514 | 0.487
7 | NCI-H23 | 0.44 | 0.444 | 0.451 | 0.493 | 0.433 | 0.888 | 0.843 | 0.746 | 0.737 | 0.754 | 0.482 | 0.58 | 0.574 | 0.515 | 0.541 | 0.309 | 0.329 | 0.346 | 0.284 | 0.291
8 | EMC-BAC-2 | 0.515 | 0.516 | 0.497 | 0.512 | 0.56 | 0.527 | 0.482 | 0.538 | 0.471 | 0.542 | 0.551 | 0.493 | 0.539 | 0.502 | 0.518 | 1.1 | 0.958 | 1.06 | 1 | 1.01
